Measured values from EP0311100A2, “Derivatives of dideoxycytidine, their preparation and pharmaceutical use” (F. HOFFMANN-LA ROCHE AG, priority 1987, dated 1989).
Each block holds one compound with its values, some of them ahead of it.

Tests used:
[1] = apparent partition coefficient n-octanol / phosphate buffer pH 7,4 (method of Hansch et al.); type: physicochemical; conditions: n-octanol / aqueous phosphate buffer pH 7,4
Excerpt: Wie oben erwähnt, zeigen die erfindungsgemässen Verbindungen grössere Stabilität und Lipophilität als bekannte Nucleotidderivate. In der nachstehenden Tabelle I sind für ausgewählte erfindungsgemässe Verbindungen die gemessenen Verteilungskoeffizienten angegeben, die wiederum ein Anzeichen für die Lipophilität der Verbindung darstellt. Tabelle I

[2] = stability in methanol/water (HPLC); type: physicochemical
Excerpt: (§1) Die Stabilität ausgewählter erfindungsgemässer Verbindungen in Methanol/Wasser oder menschlichem Blutplasma wurde wie nachstehend angegeben geprüft:
(§2) Zunächst wurden die HPLC-Bedingungen für die Probenmessung bestimmt, d.h. eine Revers-Phasen C-18-Säule mit einem Lösungsmittelsystem mit variierenden Verhältnissen von Methanol: […] Natriumphosphat, pH 6,8.
(§3) Danach wurde die maximale UV-Absorption für jede Probe und die grösste Stabilität unter Laborbedingungen für jede Probe in Methanol:Wasser bestimmt. Danach wurde die Stabilität im menschlichen Plasma untersucht.
(§4) Die HPLC-Apparatur war ein Gradientsystem bestehend aus einem Modell 1601 Gradient Master, einer Constametric I Pumpe und einer Constametric III Pumpe. Weiterhin wurden ein LDC-Spectromometer III als Detektor und ein Waters 712B Wisp Autoinjektor verwendet. Allen Proben wurde eine ODS-3 RAC II, 5 µ, 15 cm x 4,0 mm ID-Säule (Whatmann, Clifton, N.J.) verwendet. Das Lösungsmittelsystem bestand aus Methanol: 0,001M NaH₂PO₄ (pH 6,8) in den folgenden Proportionen: 1b, 2b - 50:50; 1a, 2a - 43:57; 1c, 2c - 50:50.
Jede Verbindung wurde in ein konisches 15 ml Teströhrchen eingewogen und in DMSO gelöst, so dass eine Vorratslösung von 10 mg/ml erhalten wurde. Die Proben für die Standardkurve wurden durch Verdünnen der DMSO-Vorratslösung mit der mobilen Phasen wie folgt hergestellt:
(§5) Die chromatographischen Daten wurden mit einem Nelson 3000 Datasystem gesammelt. Peakhöhen der Kalibrierungs-Standards jeder Verbindung wurden gemessen und gegen bekannte Konzentrationen aufgetragen. Eine lineare Kurve der kleinsten Quadrate (ungewichtet) wurde berechnet und alle Probenkonzentrationen wurden aus dieser Kurve rückgerechnet. Die Resultate sind in den Tabellen II-VIII zusammengestellt. Tabelle II

[3] = stability in human plasma at 37°C (HPLC); type: in vitro ADME; conditions: human plasma 37°C; for % N, O-Diacyl (1a): incubated 1a; for % N, O-Diacyl (1b): incubated 1b; for % N, O-Diacyl (1c): incubated 1c; for % N-Acyl (2a): incubated 2a; for % N-Acyl (2b): incubated 2b; for % N-Acyl (2c): incubated 2c
Excerpt: as §1
Die folgenden Verbindungen wurden auf Stabilität im menschlichen Plasma geprüft:
as §2, §3
Das im Experiment verwendete menschliche Plasma wurde bis zur Verwendung eingefroren.
as §4
Jede Verbindung wurde in ein konisches 15 ml Teströhrchen eingewogen und in DMSO gelöst, so dass eine Vorratslösung von 10 mg/ml erhalten wurde. Die Proben für die Standardkurve wurden durch Verdünnen der DMSO-Vorratslösung mit der mobilen Phasen wie folgt hergestellt: […]
as §5

Scheinbarer Verteilungskoeffizient zwischen n-Octanol und Phosphatpuffer pH 7,4 [1]: 0.03
SMILES: Nc1ccn([C@H]2C=C[C@@H](CO)O2)c(=O)n1 [2′,3′-Didehydro-2′,3′-dideoxycytidin, reference compound]

Scheinbarer Verteilungskoeffizient zwischen n-Octanol und Phosphatpuffer pH 7,4 [1]: 0.14
SMILES: CC(=O)OC[C@@H]1CC[C@H](n2ccc(N)nc2=O)O1 [2′,3′-Dideoxycytidin 5′-acetat]

Scheinbarer Verteilungskoeffizient zwischen n-Octanol und Phosphatpuffer pH 7,4 [1]: 0.05
SMILES: Nc1ccn([C@H]2CC[C@@H](CO)O2)c(=O)n1 [2′,3′-Dideoxycytidin, reference compound]

Scheinbarer Verteilungskoeffizient zwischen n-Octanol und Phosphatpuffer pH 7,4 [1]: 0.39
SMILES: CC(=O)Nc1ccn([C@H]2C=C[C@@H](COC(C)=O)O2)c(=O)n1 [N-Acetyl 2′,3′-didehydro-2′,3′-dideoxycytidin 5′-acetat]

Scheinbarer Verteilungskoeffizient zwischen n-Octanol und Phosphatpuffer pH 7,4 [1]: 0.62
SMILES: CC(=O)Nc1ccn([C@H]2CC[C@@H](COC(C)=O)O2)c(=O)n1 [N-Acetyl 2′,3′-dideoxycytidin 5′-acetat]

Scheinbarer Verteilungskoeffizient zwischen n-Octanol und Phosphatpuffer pH 7,4 [1]: 0.22
SMILES: CC(=O)Nc1ccn([C@H]2CC[C@@H](CO)O2)c(=O)n1 [N-Acetyl 2′,3′-dideoxycytidin]

Scheinbarer Verteilungskoeffizient zwischen n-Octanol und Phosphatpuffer pH 7,4 [1]: 15.0
SMILES: O=C(Nc1ccn([C@H]2CC[C@@H](CO)O2)c(=O)n1)c1ccccc1 [N-Benzoyl 2′,3′-dideoxycytidin]

Scheinbarer Verteilungskoeffizient zwischen n-Octanol und Phosphatpuffer pH 7,4 [1]: > 1000
SMILES: CCCCCCCCCCCCCCCC(=O)Nc1ccn([C@H]2CC[C@@H](COC(=O)CCCCCCCCCCCCCCC)O2)c(=O)n1 [N-Palmitoyl 2′,3′-dideoxycytidin 5′-palmitoat]

Scheinbarer Verteilungskoeffizient zwischen n-Octanol und Phosphatpuffer pH 7,4 [1]: 6.8
% N, O-Diacyl (1a,1b,1c) ([2]; time 0 days): 100%
% N, O-Diacyl (1a,1b,1c) ([2]; time 14 days): 43%
% N-Acyl (2a,2b, 2c) ([2]; time 14 days): 18%
% O-Acyl- (3a,3b,3c) ([2]; time 14 days): 27%
% N, O-Diacyl (1a) ([3]; time 0 (Tage)): 86%
% N, O-Diacyl (1a) ([3]; time 0,5 (Tage)): 70%
% N, O-Diacyl (1a) ([3]; time 1 (Tage)): 40%
% N, O-Diacyl (1a) ([3]; time 2 (Tage)): 17%
% N, O-Diacyl (1a) ([3]; time 4 (Tage)): 10%
% N, O-Diacyl (1a) ([3]; time 24 (Tage)): 1%
SMILES: CCC(=O)Nc1ccn([C@H]2CC[C@@H](COC(=O)CC)O2)c(=O)n1 [Verbindung 1a, N-Propanoyl 2′,3′-dideoxycytidin 5′-propanoat]

Scheinbarer Verteilungskoeffizient zwischen n-Octanol und Phosphatpuffer pH 7,4 [1]: 58.0
% N, O-Diacyl (1a,1b,1c) ([2]; time 0 days): 100%
% N, O-Diacyl (1a,1b,1c) ([2]; time 14 days): 73%
% N-Acyl (2a,2b, 2c) ([2]; time 14 days): 8%
% O-Acyl- (3a,3b,3c) ([2]; time 14 days): 17%
% ddC 4 ([2]; time 14 days): 2%
% N, O-Diacyl (1b) ([3]; time 0 (Tage)): 95%
% N, O-Diacyl (1b) ([3]; time 0,5 (Tage)): 83%
% N, O-Diacyl (1b) ([3]; time 1 (Tage)): 38%
% N, O-Diacyl (1b) ([3]; time 2 (Tage)): 9%
% N, O-Diacyl (1b) ([3]; time 4 (Tage)): 4%
% N, O-Diacyl (1b) ([3]; time 24 (Tage)): 3%
SMILES: CC(C)C(=O)Nc1ccn([C@H]2CC[C@@H](COC(=O)C(C)C)O2)c(=O)n1 [Verbindung 1b, N-(2-Methylpropanoyl) 2′,3′-dideoxycytidin 5′-(2-methylpropanoat)]

Scheinbarer Verteilungskoeffizient zwischen n-Octanol und Phosphatpuffer pH 7,4 [1]: 70.0
% N, O-Diacyl (1a,1b,1c) ([2]; time 0 days): 100%
% N, O-Diacyl (1a,1b,1c) ([2]; time 14 days): 43%
% N-Acyl (2a,2b, 2c) ([2]; time 14 days): 20%
% O-Acyl- (3a,3b,3c) ([2]; time 14 days): 32%
% ddC 4 ([2]; time 14 days): 25%
% N, O-Diacyl (1c) ([3]; time 0 (Tage)): 64%
% N, O-Diacyl (1c) ([3]; time 0,5 (Tage)): 23%
% N, O-Diacyl (1c) ([3]; time 1 (Tage)): 10%
% N, O-Diacyl (1c) ([3]; time 2 (Tage)): 7%
% N, O-Diacyl (1c) ([3]; time 4 (Tage)): 6%
% N, O-Diacyl (1c) ([3]; time 24 (Tage)): 6%
SMILES: CCCC(=O)Nc1ccn([C@H]2CC[C@@H](COC(=O)CCC)O2)c(=O)n1 [Verbindung 1c, N-Butanoyl 2′,3′-dideoxycytidin 5′-butanoat]

Scheinbarer Verteilungskoeffizient zwischen n-Octanol und Phosphatpuffer pH 7,4 [1]: 0.83
% N-Acyl (2a,2b, 2c) ([2]; time 0 days): 100%
% N-Acyl (2a,2b, 2c) ([2]; time 14 days): 56%
% ddC 4 ([2]; time 14 days): 28%
% N-Acyl (2a) ([3]; time 0 (Tage)): 97%
% N-Acyl (2a) ([3]; time 0,5 (Tage)): 87%
% N-Acyl (2a) ([3]; time 1 (Tage)): 85%
% N-Acyl (2a) ([3]; time 2 (Tage)): 96%
% N-Acyl (2a) ([3]; time 4 (Tage)): 99%
% N-Acyl (2a) ([3]; time 24 (Tage)): 80%
SMILES: CCC(=O)Nc1ccn([C@H]2CC[C@@H](CO)O2)c(=O)n1 [Verbindung 2a, N-Propanoyl 2′,3′-dideoxycytidin]

Scheinbarer Verteilungskoeffizient zwischen n-Octanol und Phosphatpuffer pH 7,4 [1]: 2.38
% N-Acyl (2a,2b, 2c) ([2]; time 0 days): 100%
% N-Acyl (2a,2b, 2c) ([2]; time 14 days): 83%
% O-Acyl- (3a,3b,3c) ([2]; time 14 days): 17%
% ddC 4 ([2]; time 14 days): 2%
% N-Acyl (2b) ([3]; time 0 (Tage)): 83%
% N-Acyl (2b) ([3]; time 0,5 (Tage)): 88%
% N-Acyl (2b) ([3]; time 1 (Tage)): 61%
% N-Acyl (2b) ([3]; time 2 (Tage)): 78%
% N-Acyl (2b) ([3]; time 4 (Tage)): 89%
% N-Acyl (2b) ([3]; time 24 (Tage)): 92%
SMILES: CC(C)C(=O)Nc1ccn([C@H]2CC[C@@H](CO)O2)c(=O)n1 [Verbindung 2b, N-(2-Methylpropanoyl) 2′,3′-dideoxycytidin]

Scheinbarer Verteilungskoeffizient zwischen n-Octanol und Phosphatpuffer pH 7,4 [1]: 2.67
% N-Acyl (2a,2b, 2c) ([2]; time 0 days): 100%
% N-Acyl (2a,2b, 2c) ([2]; time 14 days): 76%
% ddC 4 ([2]; time 14 days): 20%
% N-Acyl (2c) ([3]; time 0 (Tage)): 101%
% N-Acyl (2c) ([3]; time 0,5 (Tage)): 95%
% N-Acyl (2c) ([3]; time 1 (Tage)): 92%
% N-Acyl (2c) ([3]; time 2 (Tage)): 90%
% N-Acyl (2c) ([3]; time 4 (Tage)): 85%
% N-Acyl (2c) ([3]; time 24 (Tage)): 77%
SMILES: CCCC(=O)Nc1ccn([C@H]2CC[C@@H](CO)O2)c(=O)n1 [Verbindung 2c, N-Butanoyl 2′,3′-dideoxycytidin]
